Measured values published in US7914768B2, “Stabiliser for radiopharmaceuticals” (GE Healthcare Limited, priority 2000, dated 2011).

Test: Rcp of ^99mTc-HMPAO after addition of a single stabiliser, two step process (Example 1)
Type: physicochemical
Conditions: additive added 2 minutes post-radiolabelling; amount as in table; n = 3 (*n = 1)
Procedure: To each of ten vials each containing 0.5 mg of HMPAO and 4.0 μg of Sn^2+ (stannous), was added sodium pertechnetate (1.48 GBq in 5 ml of saline) to carry out the radiolabelling. To each of 9 of the ten reconstituted vials was individually added the compound shown in Table 1 at a time of 2 minutes post-radiolabelling. Nothing was added to the remaining vial. At 1 minute and 3 hours after the addition, an aliquot was taken from each vial and the Rcp measured by a combination of three chromatographic systems (stationary phase/developing solvent: silica gel/methyl ethyl ketone, silica gel/saline, filter paper/50% aqueous acetonitrile).
For `Nc1ccc(C(=O)O)cc1` [4-Aminobenzoic acid, 4-aminobenzoic acid], the “Rcp 1 min from addition (%)” value was 80 ± 8% and the “Rcp 3 hours from addition (%)” value was 67 ± 5%.
In the case of `O=C1O[C@H]([C@@H](O)CO)C(O)=C1O` [Ascorbic acid], the “Rcp 1 min from addition (%)” value is reported as 83* % and the “Rcp 3 hours from addition (%)” value is reported as 41* %.
With `[Cl][Co][Cl]` [Cobalt chloride] the “Rcp 1 min from addition (%)” value was 94 ± 3% and the “Rcp 3 hours from addition (%)” value was 89 ± 2%.
For `O=C(NCCO)c1cc(O)ccc1O` [Gentisic acid ethanolamide], the “Rcp 1 min from addition (%)” value was 61 ± 3% and the “Rcp 3 hours from addition (%)” value was 29 ± 13%.
For `O=C(O)c1cc(O)ccc1O` [Gentisic acid], the “Rcp 1 min from addition (%)” value was 87 ± 2% and the “Rcp 3 hours from addition (%)” value was 77 ± 3%.
For `O=P(O)(O)CP(=O)(O)O` [Methylene diphosphonic acid, methylenediphosphonic acid], the “Rcp 1 min from addition (%)” value was 79* % and the “Rcp 3 hours from addition (%)” value was 30* %.
In the case of `Nc1ccc(C(=O)[O-])cc1.[Na+]` [Sodium4-amino-benzoate, sodium 4-aminobenzoate], the “Rcp 1 min from addition (%)” value is reported as 69 ± 5% and the “Rcp 3 hours from addition (%)” value is reported as 39 ± 11%.
In the case of `O=C1O[C@H]([C@@H](O)CO)C([O-])=C1O.[Na+]` [Sodium ascorbate], the “Rcp 1 min from addition (%)” value is reported as 90* % and the “Rcp 3 hours from addition (%)” value is reported as 51* %.
For `O=C(O)CCC(=O)O` [Succinic acid], the “Rcp 1 min from addition (%)” value was 51* % and the “Rcp 3 hours from addition (%)” value was 14* %.
